Reference: patent US4582824A, “Method for inhibiting activities of platelet activating factor” (Takeda Chemical Industries, Ltd., priority 1983, dated 1986)

Columns and labels:
respiratory stenosis = details: compared with all the known compounds; cited from earlier work
[1] = tested on: PAF-induced respiratory (airway) stenosis; test: PAF-inhibiting activity in respiratory stenosis; type: in vivo, guinea pig (Hartley); details: PAF 0.3 μg/kg i.v., control group pretreated with saline; mean±S.D., 6 cases
Method: Male and female Hartley strain guinea pigs weighing about 400 g were used. Under urethane anesthesia (1.5 g/kg, i.p.), each animal was immobilized in supine position and one shank of a tracheal cannula (of 4-shank type) was inserted into the airway, with two of the remaining three shanks being connected to a Harvard Apparatus rodent respirator and the remaining one shank to a bronchospasm transducer (Ugo-basile Model 7020). At an air volume of 5 to 7 ml per cycle, an air supply frequency of 70 times/min. and a lung loading pressure of 10 cm H2 O, the volume of overflowing air was recorded through the transducer on a rectigraph (Rectigraph-8S, Sanei Sokki K.K.). After gallamine triethodide (1 mg/kg, i.v.) treatment, […] of histamine 2HCl was intravenously administered to examine the response of the animal. When 0.3 μg/kg of PAF was intravenously administered to control group intravenously pretreated with physiological saline, a miximum airway stenosis was noted after 30 minutes and the amount of stenosis taking a complete stenosis as 100% was 72.8±4.3 (mean±S.D., for 6 cases). The compound of Production Example 2, when intravenously administered 2 minutes before at the dose levels of 0.3 and 1 mg/kg, suppressed the above response by PAF by 49% and 82%, respectively.

platelet aggregation = details: compared with ADP and TXA2; cited from earlier work
[2] = tested on: circulatory shock due to PAF; test: Inhibitory activity against circulatory shock due to PAF in anesthetized dogs; type: in vivo, mongrel dogs; details: for CO (percent of value prior to PAF) / CoF (percent of value prior to PAF) / DBP (percent of value prior to PAF) / HR (percent of value prior to PAF) / LVP (percent of value prior to PAF) / MBP (percent of value prior to PAF) / SBP (percent of value prior to PAF) / max dp/dt (row head is a drawing; percent of value prior to PAF): PAF 1.0 μg/kg i.v. alone
Method: Male and female mongrel dogs weighing 9 to 13 kg were used. Under pentobarital sodium ([…], i.v.) anesthesia and supportive respiration, a thoracotomy was performed at the left fourth interspace. The origin of the left coronary circumflex and the aortic arch were released, an electromagnetic probe was attached to each, and the coronary blood flow (CoF) and cardiac output (CO) were measured. Moreover, a polyethylene cannula was inserted from the apex of the heart into the left ventricle and the left ventricular pressure (LVP) was measured by means of a pressure transducer. In addition, its first-order differential dp/dt was determined by way of a differential circuit. The mean blood pressure (MBP) was continuously recorded on an ink-writing polygraph through a pressure transducer via a cannula inserted into the right femoral artery and the heart rate (HR) was similarly recorded via a tachometer driven by mean blood pressure pulse waves. PAF and the compound of Production Example 2 were respectively dissolved in physiological saline and administered via a cannula into the left femoral vein. After 1.0 μg/kg of PAF was intravenously administered and the respective parameters recovered to normal, the compound of Production Example 2 (10 mg/kg) was intravenously administered. After 10 minutes, 1.0 μg/kg of PAF was intravenously administered to estimate the anti-PAF activity of the compound of Production Example 2. All values are in percents relative to the values prior to PAF administration.

## CCCCCCCCCCCCCCCCOCC(COP(=O)([O-])OCC[N+](C)(C)C)OC(C)=O (stereo not drawn) [PAF, 1-O-alkyl-2-acetyl-sn-glyceryl-3-phosphorylcholine]
Respiratory stenosis
  activity in respiratory stenosis assay in words: highest activity of all the known compounds
[1]
  amount of stenosis taking a complete stenosis as 100%: 72.8±4.3%
Platelet aggregation
  platelet aggregation activity in words: greater activity at lower concentrations
[2]; PAF 1.0 μg/kg i.v.
  decrease of CO in words: particularly remarkable
  heart rate (HR) change in words: only a slight decrease
  time before the preadministration values were recovered: 60 min
[2]; 0.5 min
  CO (percent of value prior to PAF): 93 ± 13%
  CoF (percent of value prior to PAF): 75 ± 3%
  DBP (percent of value prior to PAF): 58 ± 3%
  HR (percent of value prior to PAF): 96 ± 8%
  LVP (percent of value prior to PAF): 81 ± 1%
  MBP (percent of value prior to PAF): 62 ± 4%
  SBP (percent of value prior to PAF): 70 ± 5%
  max dp/dt (row head is a drawing; percent of value prior to PAF): 76 ± 8%
[2]; 1 min
  CO (percent of value prior to PAF): 33 ± 3%
  CoF (percent of value prior to PAF): 77 ± 3%
  DBP (percent of value prior to PAF): 47 ± 3%
  HR (percent of value prior to PAF): 95 ± 8%
  LVP (percent of value prior to PAF): 59 ± 7%
  MBP (percent of value prior to PAF): 49 ± 5%
  SBP (percent of value prior to PAF): 52 ± 5%
  max dp/dt (row head is a drawing; percent of value prior to PAF): 50 ± 3%
[2]; 5 min
  CO (percent of value prior to PAF): 35 ± 7%
  CoF (percent of value prior to PAF): 56 ± 2%
  DBP (percent of value prior to PAF): 67 ± 12%
  HR (percent of value prior to PAF): 89 ± 3%
  LVP (percent of value prior to PAF): 62 ± 6%
  MBP (percent of value prior to PAF): 63 ± 11%
  SBP (percent of value prior to PAF): 59 ± 9%
  max dp/dt (row head is a drawing; percent of value prior to PAF): 54 ± 7%
